# Data taken from paper PMC6965176, “Targeting Forward and Reverse EphB4/EFNB2 Signaling by a Peptide with Dual Functions” (Scientific Reports, 2020).
# Non-standard residues stand in square brackets, D forms with d. Residues, ends and D or L forms follow the SMILES beside them. No end group written: not given here.
# B1: EFNB2-Fc: ephrin B2 ligand fused to Fc, natural ligand of EphB4 (protein)
# chain: IVLEPIYWNSSNSKFLPGQGLVLYPQIGDKLDIICPKVDSKTVGQYEYYKVYMVDKDQADRCTIKKENTPLLNCAKPDQDIKFTIKFQEFSPNLWGLEFQKNKDYYIISTSNGSLEGLDNQEGGVCQTRAMKILMKVGQDASSAGSTRNKDPTRRPELEAGTNGRSSTTSPFVKPNPGSSTDGNSAGHSGNNILGSEVALFA
# modifications: left off: Fc, end not stated, kept
# notes: ephrin B2 ligand fused to Fc, natural ligand of EphB4
# B2: BIDEN-AP (bi-directional ephrin agonist peptide), TNd(Y)LFSPNGPIARAW (peptide)
# peptide: TN[dY]LFSPNGPIARAW
# notes: TNYL-RAW with L-Tyr-P3 replaced by D-Tyr; source: synthetic peptide
# B3: Cyclo(KTNYLFSPNGPIARAWD) (peptide)
# peptide: KTNYLFSPNGPIARAWD
# modifications: also: cyclic, ring bond not given here
# notes: TNYL-RAW with an added Lys before and Asp after it, cyclised; MW 1932 Da; also called B4-001; source: synthetic peptide (solid phase, Rink resin, HPLC purified)
# B4: TNYL-RAW (peptide)
# peptide: TNYLFSPNGPIARAW
# notes: known EphB4 antagonist peptide, 15 residues (P1-P15); Made on Rink resin, so a C-terminal amide is likely; source: synthetic peptide (solid phase, Rink resin, HPLC purified)
# Legend:
# [1] = target: T1, EphB4 (Homo sapiens, UniProt P54760); experiment: SPR (BIACore) binding of peptides to immobilized EphB4; settings: Table S1; SPR BIACore, EphB4 immobilized on CM5 chip, 25°C, HBSEP buffer pH 7.4, peptides 1.6-800 nM, duplicate, KD = Koff/Kon, 1:1 Langmuir model
# T1 construct: purchased R&D Systems
# T1 sequence (P54760 16-987): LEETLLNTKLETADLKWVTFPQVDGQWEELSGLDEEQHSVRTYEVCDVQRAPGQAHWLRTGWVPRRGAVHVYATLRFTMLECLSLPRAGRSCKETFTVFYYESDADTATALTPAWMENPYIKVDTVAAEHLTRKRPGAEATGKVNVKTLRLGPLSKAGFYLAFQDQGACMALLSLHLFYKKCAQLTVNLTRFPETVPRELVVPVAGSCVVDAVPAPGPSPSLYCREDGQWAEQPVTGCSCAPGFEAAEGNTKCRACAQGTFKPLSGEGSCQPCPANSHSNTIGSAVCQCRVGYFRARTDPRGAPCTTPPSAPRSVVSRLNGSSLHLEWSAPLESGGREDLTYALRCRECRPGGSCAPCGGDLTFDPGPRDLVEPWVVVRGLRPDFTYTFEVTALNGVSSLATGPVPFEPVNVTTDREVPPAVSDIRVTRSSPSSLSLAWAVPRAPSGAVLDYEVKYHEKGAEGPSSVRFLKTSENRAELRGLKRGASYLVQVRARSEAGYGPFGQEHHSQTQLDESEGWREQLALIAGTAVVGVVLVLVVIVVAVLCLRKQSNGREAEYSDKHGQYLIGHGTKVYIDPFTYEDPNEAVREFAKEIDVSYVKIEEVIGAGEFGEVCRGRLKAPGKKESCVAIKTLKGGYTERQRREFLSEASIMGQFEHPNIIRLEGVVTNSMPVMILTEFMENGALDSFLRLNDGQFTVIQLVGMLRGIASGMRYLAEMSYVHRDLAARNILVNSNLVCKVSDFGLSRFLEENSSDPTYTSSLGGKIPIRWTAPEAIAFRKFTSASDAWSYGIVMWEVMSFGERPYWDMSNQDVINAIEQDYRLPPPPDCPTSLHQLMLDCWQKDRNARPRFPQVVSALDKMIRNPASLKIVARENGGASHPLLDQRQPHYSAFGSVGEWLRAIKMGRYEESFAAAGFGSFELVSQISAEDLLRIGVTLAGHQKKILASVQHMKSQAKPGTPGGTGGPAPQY
# Text: Surface plasmon resonance (SPR) binding and competition assays.
# Immunoblotting, immunoprecipitation, and co-immunoprecipitation.
# [2] = systemic exposure; cited from earlier work
# Text: Our group previously employed CCPM successfully to improve pharmacokinetics and enhance peptide stability for in vivo imaging applications[28]–[31]. The cross-linked core of CCPM prevents premature micelle disintegration, while the brush-like polyethylene glycol forms a dense protective layer on the micelle surface that minimizes micelle uptake by the organs of the mononuclear phagocytic system.
# [3] = test system: RF24 cells; experiment: Tubule formation of immortalized endothelial cells on Matrigel; type: cell-based; settings: BIDEN-AP 15 µM or EFNB2-Fc 2 nM, 24 h, number of nodes (Fig. 4A,B)
# Experimental: Figure 4 BIDEN-AP–based agents inhibit tube formation and sensitize resistant endothelial cells to anti-VEGF antibody. (A,B) Tube formation by RF24 cells treated with EFNB2-Fc (2 nM) or BIDEN-AP (15 µM) compared to untreated controls (CTL). Representative data from three independent experiments are presented. (A) Representative microphotographs of tubes formed by RF24 cells are shown (n = 3). Images were taken at × 100 magnification. (B) Quantification of the number of nodes per field in three technical replicates. […] (C) Representative flow cytometry plots from three independent experiments of RF24_Bev cells are shown here. SYTOX-negative staining represents the live cell population.
# Matrigel (Becton Dickinson, Bedford, MA) was used to assess formation of capillary-like structures by RF24 cells on a basement membrane. Twelve-well Costar plates (Corning, Corning, NY) were coated with Matrigel (10 mg/mL) according to the manufacturer’s instructions. RF24 cells (1.0 × 10^4 cells/well) were seeded on Matrigel-coated plates and incubated at 37 °C for 60 min. […] The degree of tubule formation was determined by the number of nodes. […] The nodes for each image were counted manually. Five images (×100 magnification) per treatment were counted double blindly. Data are expressed as a percentage of the number of tubes in untreated control wells.
# [4] = target: T2, EphB4, purified recombinant human (rhEphB4) (human, UniProt P54760 16-987); experiment: SPR; EphB4 immobilised on sensor chips, peptides or CCPM-BIDEN-AP injected; BIACore 3000; BIDEN-AP data fitted to a 1:1 mass transfer interaction model; details in the Supplementary Information; settings: both partners purified
# [5] = target: T2, EphB4, purified recombinant human …; experiment: SPR; competition: serial dilutions of BIDEN-AP (2 nM to 1000 nM) mixed with human EphB4 (30 nM) and injected onto EFNB2-Fc-coated CM-5 chips; settings: both partners purified
# [6] = target: T3, recombinant human EphB4 (human, UniProt P54760 16-539); experiment: SPR; BIACore 3000; rhEphB4 amine-coupled to CM5 chips; peptides injected at 1.6 nM to 800 nM, 30 uL/min, in duplicate; 25 C; HBSEP buffer (0.01 M HEPES pH 7.4, 0.15 M NaCl, 3 mM EDTA, 0.005% P20); 1:1 Langmuir binding model, KD = Koff/Kon; settings: both partners purified
# T3 construct: EphB4 (ephrin type-B receptor 4), human, recombinant; Amine-coupled to CM5 chips for SPR; a soluble extracellular form is likely; In the functional rows it stands for the EphB4 of the ovarian cancer cells; also called rhEphB4; source: bought: R&D Systems
# T3 sequence (looked up): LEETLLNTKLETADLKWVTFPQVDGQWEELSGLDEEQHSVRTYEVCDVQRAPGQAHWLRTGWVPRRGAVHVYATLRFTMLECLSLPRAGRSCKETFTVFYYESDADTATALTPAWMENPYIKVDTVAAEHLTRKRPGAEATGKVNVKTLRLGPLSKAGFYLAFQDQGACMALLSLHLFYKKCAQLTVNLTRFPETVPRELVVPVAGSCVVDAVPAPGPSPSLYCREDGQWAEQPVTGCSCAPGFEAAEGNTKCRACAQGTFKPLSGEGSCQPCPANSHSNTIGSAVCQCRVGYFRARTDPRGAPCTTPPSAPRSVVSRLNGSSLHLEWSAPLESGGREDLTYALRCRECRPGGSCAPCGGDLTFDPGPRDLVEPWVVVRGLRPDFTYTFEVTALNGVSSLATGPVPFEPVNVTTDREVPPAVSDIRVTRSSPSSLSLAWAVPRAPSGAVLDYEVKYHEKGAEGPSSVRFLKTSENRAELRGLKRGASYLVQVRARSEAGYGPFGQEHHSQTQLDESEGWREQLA
# [7] = target: T4, recombinant human EphB4 (human), P54760; experiment: as above
# T4 chain: T3 sequence (looked up)
molecule,measurement,setting,value
TNYLFSPNGPIARA-NH2 [B4-008],Kd,[1],13 nM
CC[C@H](C)[C@H](NC(=O)[C@@H]1CCCN1C(=O)CNC(=O)[C@H](CC(N)=O)NC(=O)[C@@H]1CCCN1C(=O)[C@H](CO)NC(=O)[C@H](Cc1ccccc1)NC(=O)[C@@H](CC(C)C)NC(=O)[C@H](Cc1ccc(O)cc1)NC(=O)[C@H](CC(N)=O)NC(=O)[C@@H](N)[C@@H](C)O)C(=O)N[C@@H](C)C(=O)N[C@@H](CCCNC(=N)N)C(=O)N[C@@H](C)C(=O)N[C@@H](Cc1c[nH]c2ccccc12)C(N)=O [B4-004] (H-TNY[dL]FSPNGPIARAW-NH2),Kd,[1],65 nM
YSA-TNYL-RAW-dimer [B4-003],Kd,[1],21 nM
TNYLFSPNGPIARAW-NH2 [TNYL-RAW],area-under-the time curve [AUC],[2],29.1 %ID h/mL
CC[C@H](C)[C@H](NC(=O)[C@@H]1CCCN1C(=O)CNC(=O)[C@H](CC(N)=O)NC(=O)[C@@H]1CCCN1C(=O)[C@H](CO)NC(=O)[C@H](Cc1ccccc1)NC(=O)[C@H](CC(C)C)NC(=O)[C@H](Cc1ccc(O)cc1)NC(=O)[C@H](CC(N)=O)NC(=O)[C@@H](N)[C@@H](C)O)C(=O)N[C@@H](C)C(=O)N[C@H](CCCNC(=N)N)C(=O)N[C@@H](C)C(=O)N[C@@H](Cc1c[nH]c2ccccc12)C(N)=O [B4-002],Kd,[1],39 nM
CC[C@H](C)[C@H](NC(=O)[C@@H]1CCCN1C(=O)CNC(=O)[C@H](CC(N)=O)NC(=O)[C@@H]1CCCN1C(=O)[C@H](CO)NC(=O)[C@@H](Cc1ccccc1)NC(=O)[C@H](CC(C)C)NC(=O)[C@H](Cc1ccc(O)cc1)NC(=O)[C@H](CC(N)=O)NC(=O)[C@@H](N)[C@@H](C)O)C(=O)N[C@@H](C)C(=O)N[C@@H](CCCNC(=N)N)C(=O)N[C@@H](C)C(=O)N[C@@H](Cc1c[nH]c2ccccc12)C(N)=O [B4-005] (H-TNYL[dF]SPNGPIARAW-NH2),Kd,[1],75 nM
B1,formation of capillary-like tubes,[3],significantly inhibited the formation of capillary-like tubes
B2,Kd,[4],7 nM
same,IC50,[5],4 nM
B3,Kd,[6],4.4 nM
B4,Kd,[6],3.1 nM
TNYLFSPNGPIARAW (modifications not checked) [YSA-TNYL-RAW-dimer],Kd,[7],21 nM
